# Source: patent US4616003A, “N^6 -dihydroxypropyladenosines” (Warner-Lambert Company, priority 1985, dated 1986)
# Read-outs that look alike come from different tables or passages of the source.
# Legend:
# adenosine A1 receptor = biological target: T1, adenosine A1 receptor (Rattus norvegicus, UniProt P25099); assay: Adenosine A1 receptor binding (RBA-1), displacement of [3H]-CHA
# T1 construct: Whole brain minus cerebellum and brainstem from male Long Evans rats (150-200 g) was homogenized; from tissue; host or cells: rat whole brain minus cerebellum and brainstem, male Long Evans
# T1 sequence (P25099 1-326): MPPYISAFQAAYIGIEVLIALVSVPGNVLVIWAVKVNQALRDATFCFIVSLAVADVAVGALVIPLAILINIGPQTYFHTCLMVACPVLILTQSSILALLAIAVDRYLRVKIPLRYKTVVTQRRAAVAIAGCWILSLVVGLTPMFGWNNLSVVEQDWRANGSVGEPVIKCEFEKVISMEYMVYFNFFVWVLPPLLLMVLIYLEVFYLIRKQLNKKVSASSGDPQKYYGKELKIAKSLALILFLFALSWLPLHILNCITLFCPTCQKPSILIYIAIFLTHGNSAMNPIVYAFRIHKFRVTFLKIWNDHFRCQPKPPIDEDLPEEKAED
# Experimental: Whole brain minus cerebellum and brainstem from male Long Evans rats (150-200 g) was homogenized in 30 volumes of ice-cold 0.05M Tris-HCl buffer pH 7.7 using a Brinkman Polytron PT-10, (setting number 6 for 20 seconds) and centrifuged for ten minutes at 20,000×g (Sorvall RC-2), 4° C. The supernatant was discarded, and the pellet was resuspended and centrifuged as before. The pellet was resuspended in 20 ml Tris-HCl buffer containing two International Units/ml of adenosine deaminase (Sigma type III from calf intestinal mucosa), incubated at 37° C. for 30 minutes, then subsequently at 0° C. for ten minutes. The homogenate was again centrifuged, and the final pellet was resuspended in ice-cold 0.05M Tris-HCl buffer pH 7.7 to a concentration of 20 mg/ml original wet tissue weight and used immediately.
# Tissue homogenate (10 mg/ml) was incubated in 0.05M Tris-HCl buffer pH 7.7 containing 1.0 nM [^3 H]-N^6 -cyclohexyladenosine [^3 H]-CHA) with or without test agents in triplicate for one hour at 25° C. Incubation volume was 2 ml. Unbound [^3 H]-CHA was separated by rapid filtration under reduced pressure through Whatman glass fiber (GF/B) filters. The filters were rinsed three times with 5 ml of ice cold 0.05M Tris-HCl buffer pH 7.7. The radio-labeled ligand retained on the filter was measured by liquid scintillation spectrophotometry after shaking the filters for one hour or longer on a mechanical shaker in 10 ml of Beckman Ready-Solv HP scintillation cocktail.
# Nonspecific binding was defined as the binding which occurred in the presence of 1 mM theophylline. […] The Scatchard plot was calculated by linear regression of the line obtained by plotting the amount of radioligand bound (pmoles/gram of tissue) versus [formula] Since the amount of radioligand bound was a small fraction of the total amount added, free radioligand was defined as the concentration (nM) of radioligand added to the incubation mixture. The Hill coefficient was calculated by linear regression of the line obtained by plotting the log of the bound radioligand vs the log of the [formula] The maximal number of binding sites (Bmax) was calculated from the Scatchard plot.
# Swiss-Webster male mice = assay: Mouse Activity and Screen Test (MAST): inhibition of spontaneous locomotor activity; assay type: in vivo; settings: 1 hour prior to testing
# Experimental: Nine unfasted Swiss-Webster male mice weighing 20-30 g are equally divided into three groups for each drug dose to be tested. That is, data for each dose level was generated by three separate groups of three mice each. A minimum of three dose levels (10, 30, and 100 mg/kg) are tested for each drug. Treatments are administered intraperitoneally one hour prior to testing. All dosages are calculated as parent compound and given in volumes of 10 ml/kg. Compounds are dissolved or suspended in 0.2% Methocel. Control animals are injected with Methocel. Immediately following the screen test, the final phase of testing is initiated by placing each group of three mice in one actophotometer (Life Sciences, 22, 1067-1076, 1978). The actophotometer consists of a cylindrical chamber whose center is occupied by another cylinder which contains the illumination for six photocells located on the perimeter of the chamber. Six light-beam interruptions equal one count. Locomotor activity is recorded by computer at ten minute intervals for 60 minutes. Data: The data obtained from the screen test are expressed as percent of mice falling off the screen. Data derived from locomotor activity of drug treated mice are compared to the activity of vehicle treated animals and are expressed as percent inhibition of spontaneous locomotion. All percentages reported for inhibition of locomotion (LI) are based upon data accumulated for one hour. Both phases of testing are graded: A=60-100%; C=31-59%; and N=0-30%. An overall dose rating is obtained by the following criteria: […]
# [1] = 1.0 nM [3H]-CHA, rat whole brain minus cerebellum and brainstem, read-out: RBA-1 (IC50, adenosine A1 receptor affinity)
SMILES,IC50 (adenosine A1 receptor; [1]),Inhibition of Mouse Locomotor Activity (Swiss-Webster male mice; 0.1 mg/kg i.p.),Inhibition of Mouse Locomotor Activity (Swiss-Webster male mice; 0.3 mg/kg i.p.),Inhibition of Mouse Locomotor Activity (Swiss-Webster male mice; 1.0 mg/kg i.p.),Inhibition of Mouse Locomotor Activity (Swiss-Webster male mice; 3.0 mg/kg i.p.),Inhibition of Mouse Locomotor Activity (Swiss-Webster male mice; 10 mg/kg i.p.),Inhibition of Mouse Locomotor Activity (Swiss-Webster male mice; 30 mg/kg i.p.),Inhibition of Mouse Locomotor Activity (Swiss-Webster male mice; 100 mg/kg i.p.),IC50 (adenosine A1 receptor),Inhibition of Mouse Locomotor Activity (Swiss-Webster male mice; 0.03 mg/kg i.p.)
"OCC(O)CNc1ncnc2c1ncn2[C@@H]1O[C@H](CO)[C@@H](O)[C@@H]1O (stereo partly drawn) [Example 1, (R,S)-N^6 [2,3-Dihydroxypropyl]adenosine]",9 nM,46%,96%,97%,99%,100%,100%,99%,,
OC[C@@H](O)CNc1ncnc2c1ncn2[C@@H]1O[C@H](CO)[C@@H](O)[C@H]1O [Example 3],,-18%,0%,92%,97%,97%,100%,,46 nM,-19%
"CC1(C)OCC(CNc2ncnc3c2ncn3[C@@H]2O[C@H](CO)[C@@H](O)[C@H]2O)O1 (stereo partly drawn) [Example 4, (R,S)-N^6-[2,3Dihydroxypropylisopropylidene]adenosine]",430 nM,,6%,27%,23%,96%,93%,99%,,
"CC1(C)OC[C@@H](CNc2ncnc3c2ncn3[C@@H]2O[C@H](CO)[C@@H](O)[C@H]2O)O1 [Example 5, (R)-N^6-[2,3-Dihydroxypropylisopropylidene]-adenosine]",440 nM,,40%,39%,69%,48%,98%,,,
Nc1nc(NCC(O)CO)c2ncn([C@@H]3O[C@H](CO)[C@@H](O)[C@H]3O)c2n1 (stereo partly drawn) [Example 8],34 nM,,56%,98%,98%,99%,100%,99%,,
